“Also recorded” adds a separate entry of the source.
Experiments:
[1] = system: induced RASA1-deficient mice (Rasa1 fl/fl Ub ert2cre embryos); assay: Developmental angiogenesis in embryos with TM-induced disruption of Rasa1, drug co-administered; details: for EC apoptosis (activated caspase 3) / EC export of collagen IV / deposition of collagen IV in vascular BM / blood vascular hemorrhage (and edema): Rasa1 fl/fl Ub ert2cre embryos, TM at E13.5 with drug i.p. to pregnant mice, assessed at E18.5; for Embryonic vascular phenotypes / Percentage embryos with phenotype (affected/total): TM day E13.5 plus drug; for Embryonic vascular phenotypes / Percentage embryos with phenotype (affected/total) / vascular development / vascular phenotypes, drug administered alone: harvest E18.5; for vascular development / vascular phenotypes, drug administered alone: Rasa1 fl/fl and Rasa1 fl/fl Ub ert2cre embryos, drug from E13.5 in the absence of TM
Description: Pregnant mice were given 3 i.p. injections of TM (Sigma; 0.05 mg/g body weight per injection, dissolved in corn oil) on consecutive days. The MEK inhibitor, AZD6244 (Selleckchem; 0.05 mg/g body weight per injection), the PI3K inhibitor, PX-866 (Cayman chemical; 0.015 mg/g body weight per injection), the chemical chaperone, 4PBA (Sigma; 0.25 mg/g body weight per injection), and the 2OG dependent oxygenase inhibitors, EDHB and 2,4PDCA (Sigma; 0.1 mg/g body weight per injection) were injected i.p. into mice at the same time as TM and the day following the last TM injection for AZD6244 and PX-866 or for all subsequent days of gestation until harvest for 4PBA, EDHB and 2,4PDCA. […] Embryos were fixed in 3.75% formaldehyde overnight and embedded in paraffin. Five micrometer sections were dehydrated and antigen retrieval was performed with a Diva de-cloaking kit (Biocare Medical). […] Secondary antibodies used were species-specific anti-immunoglobulin donkey F(ab)2 fragments coupled to Alexa Fluor 488, 594 or 647 (Jackson Immunoresearch) and were incubated with tissues in PBS for 2 hours. Sections were stained with Hoechst (Invitrogen) to identify nuclei before mounting and viewing on a BX60 upright fluorescence microscope (Nikon) or a Leica SP5 X confocal microscope (Leica Microsystems).

HUVEC = assay: RASA1 siRNA knockdown in HUVEC, intracellular collagen IV accumulation (immunofluorescence); assay type: cell-based, human; details: RASA1 siRNA-treated HUVEC, 2 mM 4PBA, 24 hours
Description: HUVEC from pooled donors (Lonza, CC-2519) were cultured in EBM™-2 Basal Medium (Lonza, CC-3156) supplemented with EGMm-2 SingleQuots™ Supplement Pack (Lonza, CC-4176). Cells were transfected with 50 nM RASA1 siRNA (5′-[…]-3′ (SEQ ID NO: 1), Invitrogen) using Lipofectamine RNAi MAX (Invitrogen) reagent according to the manufacturer's protocol. Stealth RNAi™ siRNA Negative Control Hi GC (Invitrogen) was used as control. Following transfection, HUVEC were recultured in the presence or absence of 2 mM 4PBA for 24 hours.
HUVECs were fixed with 4% paraformaldehyde in PBS for 30 minutes at room temperature washed in PBS, permeabilized with 0.2% Triton X-100, and blocked with 10% donkey serum for 1 hour. Cells were incubated with antibodies against collagen IV (1340-01, SouthemBiotech) and calnexin (PA5-34754, Thermo Fisher) overnight, followed by Alexa Fluor®488 or 594 conjugated secondary antibodies (Jackson ImmunoResearch) for 4 hours. Cells were stained with Hoechst to identify nuclei before mounting and viewing on a Leica SP5 X confocal microscope.

B16 melanoma = assay: Tumor angiogenesis, B16 melanoma model in adult induced RASA1-deficient mice; assay type: in vivo, mouse; details: 13 days
Description: TM was administered to mice at 2 months of age (female mice for ID8 experiments and mice of either sex for B16 experiments). After 1 week, mice were injected s.c. in the flank with 1×10^6 ID8 cells or 0.75×10^6 B16F10 cells (provided by Weiping Zou, Michigan Medicine, Ann Arbor Michigan) suspended in 100 μl matrigel (Corning). In B16 experiments, 4PBA was administered to some mice at the same time as tumor and for each day thereafter (0.4 mg/g body weight per injection). ID8 and B16 tumors were harvested 6 weeks or 13 days later respectively and tumor weight and volume was determined as described (Kozak et al. Proc Natl Acad Sci USA. 2010; 107(46):19997-20002; incorporated by reference in its entirety). Tumors were fixed in 4% paraformaldehyde overnight and 5 μm sections were stained with Hoechst and antibodies against CD31, activated caspase 3 and collagen IV as above. Sections were viewed on a BX60 upright fluorescence microscope or a Leica SP5 X confocal microscope. BV density was assessed within a random 800 μm×800 μm region.

[2] = system: mouse models that express these mutants; details: mouse models expressing point mutant collagen IV variants; cited from earlier work
human and mouse EC = human and mouse EC in vitro; cited from earlier work
[3] = Rasa1 fl/fl littermates, Ert2Cre driver None
[4] = TM-treated Rasa1 fl/fl Ub ert2cre recipients, 4PBA daily from tumor injection

Row | Embryonic vascular phenotypes [1, 3] | Percentage embryos with phenotype (affected/total) [1, 3] | Structure (SMILES) | EC apoptosis (activated caspase 3) [1] | EC export of collagen IV / deposition of collagen IV in vascular BM [1] | blood vascular hemorrhage (and edema) [1] | Embryonic vascular phenotypes ([1]; Rasa1 fl/fl, Ert2Cre driver Ub) | Percentage embryos with phenotype (affected/total) ([1]; Rasa1 fl/fl, Ert2Cre driver Ub) | intracellular accumulation of collagen IV after RASA1 knockdown (HUVEC) | B16 growth, 4PBA administered alone (B16 melanoma; Rasa1 fl/fl and Rasa1 fl/fl Ub ert2cre mice not previously injected with TM, 4PBA daily) | export of collagen IV from BEC and BV angiogenesis in B16 tumors (B16 melanoma; [4]) | growth of B16 cells (tumor weight and volume) (B16 melanoma; [4]) | B16 growth (B16 melanoma; TM-treated Rasa1 fl/fl control mice, 4PBA daily) | intracerebral hemorrhage [2] | blocked export of misfolded point mutant collagen IV variants (human and mouse EC) | EC apoptosis (activated caspase 3) ([1]; listed as 4-phenylbutyric acid) | EC export of collagen IV / deposition of collagen IV in vascular BM ([1]; listed as 4-phenylbutyric acid) | vascular development / vascular phenotypes, drug administered alone [1]
1 | None | 0 (0/6) Percentage | O=C(O)c1ccnc(C(=O)O)c1 [2,4PDCA, 2,4 pyridinedicarboxylic acid] | absence of BEC apoptosis | normal deposition of collagen IV in vascular BM | absence of hemorrhage and edema | None | 0 (0/3) Percentage |  |  |  |  |  |  |  |  |  | 
2 | None | 0 (0/8) Percentage | Cn1cnc2c(F)c(Nc3ccc(Br)cc3Cl)c(C(=O)NOCCO)cc21 [AZD6244] |  | rescued; also recorded: normal deposition of collagen IV in vascular BM | prevented; also recorded: absence of hemorrhage and edema | None | 0 (0/7) Percentage |  |  |  |  |  |  |  |  |  | did not induce any vascular abnormalities; also recorded: absence of vascular phenotypes
3 |  |  | CCOC(=O)c1ccc(O)c(O)c1 [EDHB] | completely rescued; also recorded: absence of BEC apoptosis | completely rescued; also recorded: normal deposition of collagen IV in vascular BM | completely rescued; also recorded: absence of hemorrhage and edema | None | 0 (0/5) Percentage |  |  |  |  |  |  |  |  |  | 
4 |  |  | C=CCN(/C=C1/C(=O)O[C@H](COC)[C@@]2(C)C1=C(O)C(=O)C1=C2[C@H](OC(C)=O)C[C@]2(C)C(=O)CC[C@@H]12)CC=C [PX-866] | unable to rescue | unable to rescue | extensive cutaneous hemorrhage was evident |  |  |  |  |  |  |  |  |  |  |  | 

Row | Structure (SMILES) | Embryonic vascular phenotypes [1, 3] | Percentage embryos with phenotype (affected/total) [1, 3] | EC apoptosis (activated caspase 3) [1] | EC export of collagen IV / deposition of collagen IV in vascular BM [1] | blood vascular hemorrhage (and edema) [1] | Embryonic vascular phenotypes ([1]; Rasa1 fl/fl, Ert2Cre driver Ub) | Percentage embryos with phenotype (affected/total) ([1]; Rasa1 fl/fl, Ert2Cre driver Ub) | intracellular accumulation of collagen IV after RASA1 knockdown (HUVEC) | B16 growth, 4PBA administered alone (B16 melanoma; Rasa1 fl/fl and Rasa1 fl/fl Ub ert2cre mice not previously injected with TM, 4PBA daily) | export of collagen IV from BEC and BV angiogenesis in B16 tumors (B16 melanoma; [4]) | growth of B16 cells (tumor weight and volume) (B16 melanoma; [4]) | B16 growth (B16 melanoma; TM-treated Rasa1 fl/fl control mice, 4PBA daily) | intracerebral hemorrhage [2] | blocked export of misfolded point mutant collagen IV variants (human and mouse EC) | EC apoptosis (activated caspase 3) ([1]; listed as 4-phenylbutyric acid) | EC export of collagen IV / deposition of collagen IV in vascular BM ([1]; listed as 4-phenylbutyric acid) | vascular development / vascular phenotypes, drug administered alone [1]
5 | O=C(O)CCCc1ccccc1 [4PBA, 4-phenylbutyric acid] | None | 0 (0/5) Percentage | completely rescued; also recorded: absence of BEC apoptosis | completely rescued; also recorded: normal deposition of collagen IV in vascular BM | completely rescued; also recorded: absence of hemorrhage and edema | None | 0 (0/7) Percentage | rescue | no influence | normal | restored | no influence | reversed | rescued | rescued | rescued | no influence; also recorded: absence of vascular phenotypes

From patent US12472189B2, “Treatment and prevention of capillary malformation-arteriovenous malformation” (The Regents of University of Michigan, priority 2020, dated 2025)
